The values that follow come from ChEMBL document CHEMBL1122283, “Angiotensin converting enzyme inhibitors: 1-glutarylindoline-2-carboxylic acids derivatives” (J Med Chem, 1983).

The test system of assay [1] is Rattus norvegicus. In words: In vivo percent inhibition of angiotensin I pressor response 15 min after 1 mg/kg, iv administration in spontaneously hypertensive rat (SHR). In kind it is functional. Conditions: for inhibition in vivo at 1 mg/kg: Rattus norvegicus, iv, 0.25 h.
Assay [2] deals with Rattus norvegicus. Put plainly: Maximal change in blood pressure recorded during the 4-day test period in spontaneously hypertensive rat (SHR)at 30 mg/kg, po dose. Format: functional.
Assay [3] has as its target T1, Angiotensin-converting enzyme (Oryctolagus cuniculus, UniProt P12822).
T1 sequence (P12822 whole entry): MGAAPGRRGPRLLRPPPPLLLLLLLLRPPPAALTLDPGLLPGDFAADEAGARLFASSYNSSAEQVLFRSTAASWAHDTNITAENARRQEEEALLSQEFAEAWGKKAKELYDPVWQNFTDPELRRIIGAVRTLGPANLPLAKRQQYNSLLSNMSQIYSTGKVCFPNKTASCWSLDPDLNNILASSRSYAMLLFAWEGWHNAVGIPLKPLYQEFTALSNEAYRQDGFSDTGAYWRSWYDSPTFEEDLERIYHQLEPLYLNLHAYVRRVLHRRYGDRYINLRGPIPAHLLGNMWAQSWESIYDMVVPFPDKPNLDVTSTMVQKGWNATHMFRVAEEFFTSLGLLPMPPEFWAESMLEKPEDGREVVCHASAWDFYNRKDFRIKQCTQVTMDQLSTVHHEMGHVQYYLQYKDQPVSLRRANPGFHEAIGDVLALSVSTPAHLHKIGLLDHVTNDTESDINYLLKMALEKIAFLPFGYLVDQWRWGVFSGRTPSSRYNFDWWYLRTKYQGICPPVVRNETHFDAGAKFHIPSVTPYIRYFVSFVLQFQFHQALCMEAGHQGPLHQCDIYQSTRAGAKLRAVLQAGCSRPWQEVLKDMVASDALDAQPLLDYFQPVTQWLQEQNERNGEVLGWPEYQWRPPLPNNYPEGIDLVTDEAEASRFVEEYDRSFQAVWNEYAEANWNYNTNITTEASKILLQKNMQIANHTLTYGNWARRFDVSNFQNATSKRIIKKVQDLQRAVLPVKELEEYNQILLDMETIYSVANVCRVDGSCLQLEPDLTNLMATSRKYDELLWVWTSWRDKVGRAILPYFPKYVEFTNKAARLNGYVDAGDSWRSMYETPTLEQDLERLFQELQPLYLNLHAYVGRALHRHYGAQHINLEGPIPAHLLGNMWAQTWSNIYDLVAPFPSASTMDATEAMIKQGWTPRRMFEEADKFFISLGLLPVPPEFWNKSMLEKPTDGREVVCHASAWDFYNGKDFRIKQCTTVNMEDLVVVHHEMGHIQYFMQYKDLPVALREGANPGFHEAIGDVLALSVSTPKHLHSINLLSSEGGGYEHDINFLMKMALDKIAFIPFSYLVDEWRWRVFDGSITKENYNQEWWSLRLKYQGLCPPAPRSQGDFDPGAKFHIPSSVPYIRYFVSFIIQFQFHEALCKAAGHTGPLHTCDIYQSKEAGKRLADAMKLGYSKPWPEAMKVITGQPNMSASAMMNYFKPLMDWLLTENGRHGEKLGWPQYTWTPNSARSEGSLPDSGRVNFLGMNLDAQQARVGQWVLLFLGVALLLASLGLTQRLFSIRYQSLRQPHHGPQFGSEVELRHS
Put plainly: In vitro inhibition of angiotensin I converting enzyme (ACE).

In assay [4] the test system is Rattus norvegicus. In words: In vivo percent inhibition of angiotensin I pressor response 15 min after 10mg/kg, iv administration in spontaneously hypertensive rat (SHR). Format: functional. Conditions: 0.25 h.
Assay [5] concerns the target T1, Angiotensin-converting enzyme. In words: In vitro inhibition of angiotensin converting enzyme.
The subject of assay [6] is Rattus norvegicus. Put plainly: In vivo percent inhibition of angiotensin I pressor response 15 min after 2 mg/kg, iv administration in spontaneously hypertensive rat (SHR). Format: functional. Conditions: 0.25 h.
Assay [7] relates to Rattus norvegicus. In words: In vivo percent inhibition of angiotensin I pressor response 15 min after 0.10 mg/kg, iv administration in spontaneously hypertensive rat (SHR). Format: functional. Conditions: 0.25 h.
The test system of assay [8] is Rattus norvegicus. Put plainly: Maximal change in blood pressure recorded during the 4-day test period in spontaneously hypertensive rat (SHR)at 50 mg/kg, p.o. dose. The conditions noted are these: route oral. In kind it is functional.
The test system of assay [9] is Rattus norvegicus. Put plainly: In vivo percent inhibition of angiotensin I pressor response 15 min after 0.4 mg/kg, iv administration in spontaneously hypertensive rat (SHR). In kind it is functional. The conditions noted are these: 0.25 h.
Assay [10] concerns Rattus norvegicus. Put plainly: In vivo percent inhibition of angiotensin I pressor response 15 min after 10 mg/kg, iv administration in spontaneously hypertensive rat (SHR). In kind it is functional. The conditions noted are these: 0.25 h.
Assay [11] concerns Rattus norvegicus. In words: Maximal change in blood pressure recorded during the 4-day test period in spontaneously hypertensive rat (SHR) at 30 mg/kg, po dose. In kind it is functional.
The subject of assay [12] is Rattus norvegicus. In words: In vivo percent inhibition of angiotensin I pressor response 15 min after 0.3 mg/kg, iv administration in spontaneously hypertensive rat (SHR). Format: functional. The conditions noted are these: 0.25 h.
In assay [13] the test system is Rattus norvegicus. In words: Maximal change in blood pressure recorded during the 4-day test period in spontaneously hypertensive rat (SHR)at 10mg/kg, po dose. In kind it is functional.

Broadly, the inhibition in vivo is the percentage by which the read-out fell short of the control. High values mean strong suppression, low ones little suppression. One may read the IC50 as the midpoint of a concentration-inhibition curve. Higher therefore signals lower potency. Consider `C[C@H](CCC(=O)O)C(=O)N1c2ccccc2CC1C(=O)O` (stereo not given in full), for which the inhibition in vivo at 1 mg/kg with Rattus norvegicus [1] came to 94%. This compound also registered a Max delta BP in the assay on Rattus norvegicus [2] of -35 mmHg. Besides, the IC50 in assay [3] turned out to be 0.044 µM.

On to `CC(CCC(=O)N1c2ccccc2CC1C(=O)O)C(=O)O` (stereo not given), for which 10 mg/kg produced 41% inhibition in vivo in the assay on Rattus norvegicus [4]. Further, in assay [3], the IC50 is 0.92 µM.

In turn, `O=C(O)CCCC(=O)N1CCC[C@H]1C(=O)O` returned an IC50 in [3] of 70 µM. This lies in the double-digit micromolar range.

For the compound `CC(CC(C)C(=O)N1c2ccccc2CC1C(=O)O)C(=O)O` (stereo in doubt; 6m), testing at 1 mg/kg with Rattus norvegicus [1] gave an inhibition in vivo of 76%. In addition, the half-maximal inhibitory concentration (IC50) in assay [3] turned out to be 0.19 µM.

With `CC(CC(=O)O)C(=O)N1c2ccccc2C[C@H]1C(=O)O` (stereo not given in full), 1 mg/kg produced 27% inhibition in vivo in the assay with Rattus norvegicus [1]. Also, in assay [3], it took 0.3 µM to reach half-maximal inhibition (IC50).

In the assay with Rattus norvegicus [1], `COc1ccc2c(c1)CC(C(=O)O)N2C(=O)[C@H](C)C[C@@H](C)C(=O)O` (stereo not given in full) returned an inhibition in vivo at 1 mg/kg of 56%. The compound further registered an IC50 in assay [3] of 0.11 µM.

`Cc1ccc2c(c1)CC(C(=O)O)N2C(=O)[C@H](C)C[C@@H](C)C(=O)O` (stereo not given in full) gave an IC50 in [5] of 0.49 µM. The same compound registered an inhibition in vivo at 2 mg/kg in the assay on Rattus norvegicus [6] of 40%.

On to `CC(CC(=O)O)CC(=O)N1c2ccccc2CC1C(=O)O` (stereo not given), for which at 10 mg/kg the inhibition in vivo in the assay with Rattus norvegicus [4] was 20%. This compound yielded an IC50 in assay [3] of 37 µM.

In the case of `C[C@H](C[C@@H](C)C(=O)N1c2ccccc2CC1C(=O)O)C(=O)O` (stereo not given in full), the inhibition in vivo at 0.1 mg/kg in the assay with Rattus norvegicus [7] was 45%. This compound gave an IC50 in assay [3] of 0.028 µM. This compound also showed a Max delta BP in the assay with Rattus norvegicus [8] of -39 mmHg.

Compound `CCOC(=O)[C@H](CCc1ccccc1)C[C@@H](C)C(=O)N1c2ccccc2CC1C(=O)O` (stereo not given in full) had a Max delta BP with Rattus norvegicus [2] of -70 mmHg. In [3], the IC50 was 11 µM. The compound also registered an inhibition in vivo at 0.4 mg/kg in the assay on Rattus norvegicus [9] of 89%.

In assay [3], `O=C(O)CCCC(=O)N1c2ccccc2CC1C(=O)O` (stereo not given) displayed an IC50 of 0.26 µM. In the assay on Rattus norvegicus [10], this compound registered an inhibition in vivo at 10 mg/kg of 78%. Further, the Max delta BP with Rattus norvegicus [11] was -37 mmHg.

`C[C@H](C[C@@H](CCc1ccccc1)C(=O)O)C(=O)N1c2ccccc2CC1C(=O)O` (stereo not given in full) showed an inhibition in vivo at 0.1 mg/kg in the assay on Rattus norvegicus [7] of 60%. This compound displayed an IC50 in [3] of 0.0048 µM.

As for `CC(C)C(CCC(=O)O)C(=O)N1c2ccccc2CC1C(=O)O` (stereo not given), the inhibition in vivo at 1 mg/kg with Rattus norvegicus [1] worked out at 77%. The compound further gave a half-inhibitory concentration (IC50) in [3] of 0.05 µM.

`CCOC(=O)C1Cc2ccccc2N1C(=O)[C@H](C)C[C@@H](C)C(=O)O` (stereo not given in full): in [3], the IC50 was 28 µM. Also, in the assay on Rattus norvegicus [12], at 0.3 mg/kg the inhibition in vivo was 16%.

Take `C[C@H](CS)C(=O)N1CCC[C@H]1C(=O)O` [CAPTOPRIL]: in the assay on Rattus norvegicus [1], the inhibition in vivo at 1 mg/kg came out at 90%. Further, the Max delta BP was -55 mmHg in the assay on Rattus norvegicus [2] and -45 mmHg in the assay on Rattus norvegicus [13].

In assay [3], `C[C@H](C[C@@H](C)C(=O)N1c2ccc(Cl)cc2CC1C(=O)O)C(=O)O` (stereo not given in full) had an IC50 of 0.44 µM. For the same compound, in the assay with Rattus norvegicus [6], testing at 2 mg/kg gave an inhibition in vivo of 32%.

In the assay on Rattus norvegicus [4], `O=C(O)C(CCC(=O)N1c2ccccc2CC1C(=O)O)CCc1ccccc1` (stereo not given) showed an inhibition in vivo at 10 mg/kg of 75%. Further, the 50% inhibitory concentration (IC50) in assay [3] stood at 0.039 µM. Also, the Max delta BP in the assay with Rattus norvegicus [8] is -46 mmHg.

Regarding `CCOC(=O)C1Cc2ccccc2N1C(=O)CCC(C)C(=O)O` (stereo not given), in the assay with Rattus norvegicus [4], the inhibition in vivo at 10 mg/kg is 11%. This compound also had a half-maximal inhibitory concentration (IC50) in [3] of 170 µM.

For the compound `COC(=O)CCC(C)C(=O)N1c2ccccc2CC1C(=O)O` (stereo not given), the inhibition in vivo at 0.1 mg/kg in the assay on Rattus norvegicus [7] was 45%. This compound displayed an IC50 in assay [3] of 6.9 µM. In the assay with Rattus norvegicus [8], this compound came in with a Max delta BP of -61 mmHg.

In turn, `CC(CCC(N)=O)C(=O)N1c2ccccc2CC1C(=O)O` (stereo not given) yielded an inhibition in vivo at 10 mg/kg with Rattus norvegicus [4] of 71%. Moreover, in assay [3], half-maximal inhibition (IC50) was put at 16 µM.

For the compound `CCOC(=O)[C@@H](CCC(=O)N1c2ccccc2CC1C(=O)O)CCc1ccccc1` (stereo not given in full), testing at 1 mg/kg in the assay on Rattus norvegicus [1] gave an inhibition in vivo of 17%. In addition, the IC50 in [3] was 4.3 µM.

Take `CCOC(=O)[C@H](C)C[C@@H](C)C(=O)N1c2ccccc2CC1C(=O)O` (stereo not given in full): the inhibition in vivo at 0.1 mg/kg in the assay with Rattus norvegicus [7] worked out at 52%. For the same compound, in [3], half-maximal inhibition (IC50) was put at 5.5 µM. Also, in the assay on Rattus norvegicus [8], the Max delta BP was -75 mmHg.

In the assay on Rattus norvegicus [4], `CCOC(=O)C1Cc2ccccc2N1C(=O)C(C)CC(C)C(=O)O` (stereo not given) yielded an inhibition in vivo at 10 mg/kg of 84%. Also, in assay [3], the midpoint of inhibition, the IC50, lay at 8.8 µM. Moreover, in the assay with Rattus norvegicus [8], the Max delta BP was -33 mmHg.

Turning to `CC(CCC(=O)O)C(=O)N1c2ccccc2CC1C(=O)O` (stereo not given), at 1 mg/kg the inhibition in vivo in the assay with Rattus norvegicus [1] was 84%. The compound further yielded a half-inhibitory concentration (IC50) in [3] of 0.064 µM. The Max delta BP with Rattus norvegicus [8] was -61 mmHg.

In assay [3], `O=C(O)C1Cc2ccccc2N1C(=O)CC[C@@H](CCc1ccccc1)C(=O)O` (stereo not given in full) displayed an IC50 of 0.033 µM.

As to `C[C@H](C[C@@H](C)C(=O)N1CCC[C@H]1C(=O)O)C(=O)O`, the 50% inhibitory concentration (IC50) in [3] was 4.8 µM. Against the preceding compound, the IC50 is about 150-fold higher.

`CCOC(=O)CC[C@@H](C)C(=O)N1c2ccccc2CC1C(=O)O` (stereo not given in full): in the assay with Rattus norvegicus [7], testing at 0.1 mg/kg gave an inhibition in vivo of 27%. This compound showed a concentration for half-maximal inhibition (IC50) in [3] of 11 µM. Further, in the assay on Rattus norvegicus [8], the Max delta BP was -66 mmHg.

As usually defined, the Inhibition is the relative decrease from the control value, in per cent. Turning to `CC(CC(C)C(=O)N1c2ccccc2CC1C(=O)O)C(=O)O` (stereo in doubt; 6n), the Inhibition in the assay on Rattus norvegicus [1] (1 mg/kg) is 84%. The IC50 in assay [3] turned out to be 0.054 µM.

`CC(C)(CC(=O)O)CC(=O)N1c2ccccc2CC1C(=O)O` (stereo not given) registered an IC50 in assay [3] of 290 µM.
